Test results: ChEMBL document CHEMBL1201862, “PubChem BioAssay data set” (2004)
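A five-concentration, 48-hour dose response in 96-well plates underlies each endpoint, interpolated linearly between surrounding concentrations. At the GI50, growth is halved.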 The source made the active and inactive calls. Cut-off read from the data, not from the text of the source: active = GI50 up to about 1.1 µM and inactive = higher.

Legend:
Experiment in all cases: NCI-60 cell line screen, 48 h
A549 = tested on: A549
ACHN = tested on: ACHN
CAKI-1 = tested on: CAKI-1
DU-145 = tested on: DU-145
IGROV-1 = tested on: IGROV-1
KM12 = tested on: KM12
LOX IMVI = tested on: LOX IMVI
M14 = tested on: M14
MOLT-4 = tested on: MOLT-4
NCI-H23 = tested on: NCI-H23
NCI-H522 = tested on: NCI-H522
NCI/ADR-RES = tested on: NCI/ADR-RES
OVCAR-5 = tested on: OVCAR-5
RPMI-8226 = tested on: RPMI-8226
SN12C = tested on: SN12C
SW-620 = tested on: SW-620
UACC-257 = tested on: UACC-257
U-251 = tested on: U-251
NCI-H226 = tested on: NCI-H226

Measured: GI50

CC1C(c2ccc3c(c2)OCO3)c2cc3c(cc2OC1N1CCCCC1)OCO3 (stereo not drawn)
inactive: A549 > 100 µM | ACHN 59.6 µM | CAKI-1 23.4 µM | DU-145 52.8 µM | IGROV-1 56.6 µM | KM12 41.9 µM | LOX IMVI 82.2 µM | M14 40.2 µM | MOLT-4 36.7 µM | NCI-H23 60.8 µM | NCI-H522 31.6 µM | NCI/ADR-RES 42 µM | OVCAR-5 > 100 µM | RPMI-8226 47.9 µM | SN12C > 100 µM | SW-620 55 µM | UACC-257 > 100 µM

CSCCCN(CCCSC)CCCSC
inactive: A549 > 100 µM | DU-145 > 100 µM | IGROV-1 > 100 µM | KM12 > 100 µM | LOX IMVI > 100 µM | M14 > 100 µM | MOLT-4 24.2 µM | NCI-H23 > 100 µM | NCI-H522 66.7 µM | NCI/ADR-RES > 100 µM | OVCAR-5 > 100 µM | SN12C > 100 µM | SW-620 > 100 µM | U-251 > 100 µM | UACC-257 > 100 µM

N=C(N)n1nc2c(c1O)CCC2
inactive: A549 > 100 µM | ACHN > 100 µM | CAKI-1 > 100 µM | DU-145 > 100 µM | IGROV-1 > 100 µM | LOX IMVI > 100 µM | M14 > 100 µM | NCI-H226 > 100 µM | NCI-H23 > 100 µM | NCI-H522 > 100 µM | NCI/ADR-RES > 100 µM | OVCAR-5 > 100 µM | SN12C > 100 µM | SW-620 > 100 µM | U-251 > 100 µM | UACC-257 > 100 µM

Cn1c2ccccc2c2[nH]c3ccccc3c(=O)c21
inactive: A549 > 100 µM | ACHN > 100 µM | CAKI-1 > 100 µM | DU-145 > 100 µM | IGROV-1 > 100 µM | KM12 > 100 µM | LOX IMVI 31.8 µM | M14 > 100 µM | MOLT-4 50.6 µM | NCI-H226 > 100 µM | NCI-H23 > 100 µM | NCI/ADR-RES > 100 µM | OVCAR-5 > 100 µM | RPMI-8226 > 100 µM | SN12C > 100 µM | SW-620 88.3 µM | U-251 > 100 µM | UACC-257 > 100 µM

COc1cc(OC)c2c(=O)c(OC)c(-c3ccc4c(c3)OCO4)oc2c1OC
inactive: A549 > 100 µM | ACHN 83.8 µM | CAKI-1 > 100 µM | DU-145 81.1 µM | IGROV-1 > 100 µM | KM12 > 100 µM | LOX IMVI 41.2 µM | M14 > 100 µM | MOLT-4 78.5 µM | NCI-H226 > 100 µM | NCI-H23 > 100 µM | NCI-H522 43.1 µM | NCI/ADR-RES > 100 µM | OVCAR-5 > 100 µM | SN12C > 100 µM | SW-620 > 100 µM | U-251 > 100 µM | UACC-257 > 100 µM

COc1ccc2c(c1)[n+]([O-])c(-c1ccc(Br)cc1)c(N)[n+]2[O-]
inactive: A549 32.1 µM | ACHN 47.8 µM | CAKI-1 51.5 µM | IGROV-1 43.8 µM | KM12 58.5 µM | MOLT-4 36.8 µM | NCI-H226 66.5 µM | NCI-H23 22.4 µM | NCI-H522 15.6 µM | OVCAR-5 60 µM | SN12C 47 µM | SW-620 40.2 µM | U-251 37.4 µM | UACC-257 32.4 µM

COC(=O)c1cc(C)ccc1CC(Cc1ccccc1C)C(=O)OC (stereo not drawn)
inactive: A549 51.6 µM | ACHN 75.2 µM | CAKI-1 32.8 µM | DU-145 > 100 µM | IGROV-1 45.9 µM | KM12 23.8 µM | LOX IMVI 12.5 µM | M14 29.6 µM | MOLT-4 2.56 µM | NCI-H226 81.7 µM | NCI-H23 40.1 µM | NCI-H522 25.8 µM | NCI/ADR-RES 32.6 µM | SN12C 44.9 µM | SW-620 69 µM | UACC-257 27 µM

CCOC(=O)c1c(N=P(c2ccccc2)(c2ccccc2)c2ccccc2)nnc(-c2ccccc2)c1-c1ccccc1
inactive: A549 > 100 µM | ACHN > 100 µM | DU-145 > 100 µM | IGROV-1 > 100 µM | KM12 > 100 µM | LOX IMVI > 100 µM | M14 > 100 µM | MOLT-4 > 100 µM | NCI-H226 > 100 µM | NCI-H23 > 100 µM | NCI-H522 > 100 µM | NCI/ADR-RES > 100 µM | OVCAR-5 > 100 µM | SN12C > 100 µM | SW-620 > 100 µM | U-251 > 100 µM | UACC-257 > 100 µM

Oc1ccc(Cl)cc1/N=N\c1c(O)ccc2ccccc12
inactive: A549 > 100 µM | ACHN > 100 µM | CAKI-1 > 100 µM | IGROV-1 > 100 µM | KM12 > 100 µM | LOX IMVI 60.7 µM | M14 > 100 µM | MOLT-4 35 µM | NCI-H226 > 100 µM | NCI-H23 > 100 µM | NCI-H522 59.4 µM | NCI/ADR-RES > 100 µM | OVCAR-5 > 100 µM | RPMI-8226 > 100 µM | SN12C > 100 µM | SW-620 > 100 µM | U-251 > 100 µM | UACC-257 > 100 µM

NC(=O)NCCCC(NC(=O)OCCCCn1ccc(=O)[nH]c1=O)C(=O)O (stereo not drawn)
inactive: A549 > 100 µM | ACHN > 100 µM | CAKI-1 > 100 µM | DU-145 > 100 µM | IGROV-1 > 100 µM | KM12 > 100 µM | LOX IMVI > 100 µM | M14 > 100 µM | MOLT-4 > 100 µM | NCI-H226 > 100 µM | NCI-H23 > 100 µM | NCI/ADR-RES > 100 µM | OVCAR-5 > 100 µM | RPMI-8226 > 100 µM | SN12C > 100 µM | SW-620 > 100 µM | U-251 > 100 µM | UACC-257 > 100 µM

N#CC1CCN2N=C(c3ccccc3)SC12c1ccccc1 (stereo not drawn)
inactive: A549 23.7 µM | ACHN 21.1 µM | CAKI-1 35.4 µM | IGROV-1 > 100 µM | KM12 48.6 µM | LOX IMVI 51.9 µM | M14 45.6 µM | MOLT-4 17.5 µM | NCI-H226 58.1 µM | NCI-H23 32 µM | NCI-H522 46.2 µM | NCI/ADR-RES 32.9 µM | OVCAR-5 > 100 µM | RPMI-8226 26.3 µM | SN12C 40.4 µM | SW-620 39.4 µM | U-251 44 µM | UACC-257 39.3 µM

CCCCCC(=O)OCCOCCOCCOCCOCCOCc1ccccc1
inactive: A549 > 100 µM | ACHN > 100 µM | CAKI-1 > 100 µM | IGROV-1 > 100 µM | KM12 > 100 µM | LOX IMVI > 100 µM | NCI-H226 > 100 µM | NCI-H23 > 100 µM | OVCAR-5 > 100 µM | SN12C > 100 µM | SW-620 > 100 µM | U-251 > 100 µM | UACC-257 > 100 µM
